Reference: ChEMBL document CHEMBL4251732, “Discovery of Novel Indoleamine 2,3-Dioxygenase 1 (IDO1) and Histone Deacetylase (HDAC) Dual Inhibitors” (ACS Med Chem Lett, 2018)
Calls of active or inactive are those of the source. No cut-off for these calls is given here.

Experiments:
Histone deacetylase 1 = Histone deacetylase 1 (Homo sapiens, UniProt Q13547); assay: Inhibition of recombinant human full length HDAC1 using fluorogenic substrate 3 after 30 mins by fluorescence assay
[1] = biological target: T1, Indoleamine 2,3-dioxygenase 1 (Homo sapiens, UniProt P14902); assay: Inhibition of recombinant human GST-tagged IDO1 (1 to 404 residues) at 1 uM using D-Tryptophan as substrate relative to control
Target sequence in this assay (P14902 whole entry, looked up, the tested form may be a part): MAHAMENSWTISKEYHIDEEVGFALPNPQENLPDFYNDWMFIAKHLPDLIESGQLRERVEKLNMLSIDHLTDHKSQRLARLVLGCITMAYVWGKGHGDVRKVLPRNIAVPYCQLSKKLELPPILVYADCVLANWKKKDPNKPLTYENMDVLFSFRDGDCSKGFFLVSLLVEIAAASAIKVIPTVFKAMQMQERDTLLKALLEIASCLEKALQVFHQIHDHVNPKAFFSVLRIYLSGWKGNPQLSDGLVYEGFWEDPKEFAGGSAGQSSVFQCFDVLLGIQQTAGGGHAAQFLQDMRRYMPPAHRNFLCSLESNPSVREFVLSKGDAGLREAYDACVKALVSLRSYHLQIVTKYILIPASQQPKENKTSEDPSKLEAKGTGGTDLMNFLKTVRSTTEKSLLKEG

[2] = tested on: Lewis lung carcinoma cell line; assay: Antiproliferative activity against mouse LLC cells after 48 hrs by CCK-8 assay; format: functional, cell-based
CT26 = assay: Antiproliferative activity against mouse CT26 cells after 48 hrs by CCK-8 assay; format: functional, cell-based; conditions: CT26, 48 h
A549 = assay: Antiproliferative activity against human A549 cells after 48 hrs by CCK-8 assay; format: functional, cell-based; conditions: A549, 48 h
HCT-116 [3] = assay: Antiproliferative activity against human HCT116 cells after 48 hrs by CCK-8 assay; format: functional, cell-based; conditions: HCT-116, 48 h
HT-29 = assay: Antiproliferative activity against human HT-29 cells after 48 hrs by CCK-8 assay; format: functional, cell-based; conditions: HT-29, 48 h
[4] = biological target: T1, Indoleamine 2,3-dioxygenase 1; assay: Inhibition of recombinant human GST-tagged IDO1 (1 to 404 residues) using D-Tryptophan as substrate
Target sequence in this assay (P14902 whole entry, the tested form may be a part): as the sequence (P14902 whole entry, looked up, the tested form may be a part) above

Mus musculus [5] = assay: In vivo inhibition of IDO1 in wild type C57BL/6 mouse assessed as reduction in kynurenine levels in plasma at 100 mg/kg, po administered via gavage measured up to 1 hr by LC-MS/MS analysis; format: functional, organism-based
Mus musculus [6] = assay: In vivo inhibition of IDO1 in wild type C57BL/6 mouse assessed as reduction in kynurenine levels in plasma at 100 mg/kg, po administered via gavage after 8 hrs by LC-MS/MS analysis; format: functional; conditions: C57BL/6, po
[7] = tested on: Lewis lung carcinoma cell line; assay: Antitumor activity against mouse LLC cells implanted in immunocompetent C57BL/6 mouse assessed as tumor growth inhibition at 100 mg/kg, po bid administered via gavage for 14 consecutive days measured every 4 days relative to control; format: functional; conditions: 96 h, read-out: TGI
HCT-116 [8] = assay: Induction of apoptosis in human HCT116 cells after 48 hrs by Annexin V-FITC/propidium iodide staining based flow cytometry; format: functional, cell-based
HCT-116 [9] = assay: Induction of apoptosis in human HCT116 cells at 5 uM after 48 hrs by Annexin V-FITC/propidium iodide staining based flow cytometry relative to control; format: functional
HCT-116 [10] = assay: Induction of apoptosis in human HCT116 cells at 10 uM after 48 hrs by Annexin V-FITC/propidium iodide staining based flow cytometry relative to control; format: functional
HCT-116 [11] = assay: Induction of apoptosis in human HCT116 cells at 20 uM after 48 hrs by Annexin V-FITC/propidium iodide staining based flow cytometry relative to control; format: functional
HCT-116 [12] = assay: Cell cycle arrest in human HCT116 cells assessed as accumulation at G2/M phase up to 48 hrs by propidium iodide staining based flow cytometry; format: functional
[13] = Cmax in Sprague-Dawley rat at 100 mg/kg, po administered as single dose via gavage by LC-MS/MS analysis; format: ADME, organism-based; parameters: dose 100 mg/kg, route oral; conditions: in vivo
[14] = Tmax in Sprague-Dawley rat at 100 mg/kg, po administered as single dose via gavage by LC-MS/MS analysis; format: ADME, organism-based; conditions: in vivo
[15] = Half life in Sprague-Dawley rat at 100 mg/kg, po administered as single dose via gavage by LC-MS/MS analysis; format: ADME, organism-based; conditions: in vivo
[16] = AUC (0 to infinity) in Sprague-Dawley rat at 100 mg/kg, po administered as single dose via gavage by LC-MS/MS analysis; format: ADME, organism-based; parameters: dose 100 mg/kg, time infinity, route oral; conditions: in vivo
[17] = AUC in immunocompetent C57BL/6 mouse implanted with mouse LLC cells at 100 mg/kg, po bid administered via gavage; format: ADME, organism-based; conditions: in vivo
[18] = Half life in immunocompetent C57BL/6 mouse implanted with mouse LLC cells at 100 mg/kg, po bid administered via gavage; format: ADME, organism-based; conditions: in vivo

Sequence of Histone deacetylase 1 (Q13547 whole entry, the tested form may be a part): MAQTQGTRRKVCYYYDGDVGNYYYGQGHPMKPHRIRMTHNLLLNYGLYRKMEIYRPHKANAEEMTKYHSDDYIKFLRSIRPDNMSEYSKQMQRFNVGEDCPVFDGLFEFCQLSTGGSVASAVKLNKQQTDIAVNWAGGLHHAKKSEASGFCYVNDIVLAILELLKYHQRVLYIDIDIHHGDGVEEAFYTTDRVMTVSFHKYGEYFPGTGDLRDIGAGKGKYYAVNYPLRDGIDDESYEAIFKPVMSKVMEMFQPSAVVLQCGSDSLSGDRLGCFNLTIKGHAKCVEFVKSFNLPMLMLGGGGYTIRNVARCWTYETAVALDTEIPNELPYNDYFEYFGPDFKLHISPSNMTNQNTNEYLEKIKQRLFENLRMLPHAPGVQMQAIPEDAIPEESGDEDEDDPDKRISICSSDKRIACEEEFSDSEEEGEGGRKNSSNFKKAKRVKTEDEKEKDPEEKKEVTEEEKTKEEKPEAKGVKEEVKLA

SMILES | IC50 (Histone deacetylase 1) | inhibition [1] | IC50 [2] | IC50 (CT26) | IC50 (A549) | IC50 (HCT-116 [3]) | IC50 (HT-29) | IC50 [4] | also measured
O=C(CCCCCn1cc(-c2ccc(C(=O)NCCNc3nonc3/C(=N/O)Nc3ccc(F)c(Br)c3)cc2)nn1)NO | 66.5 nM | 87% | > 100 µM | > 100 µM | > 100 µM | > 100 µM | > 100 µM |  | 
O=C(CCCCCC(=O)NCCNc1nonc1/C(=N/O)Nc1ccc(F)c(Br)c1)NO | 9.2 nM |  | 90.1 µM | 95.5 µM | 40.7 µM | 17.5 µM | 28.7 µM | 113 nM | 
NS(=O)(=O)NCCNc1nonc1/C(=N/O)Nc1ccc(F)c(Br)c1 [EPACADOSTAT] |  |  | > 100 µM | > 100 µM | > 100 µM | > 100 µM | > 100 µM |  | inhibition (Mus musculus [5]): Active; inhibition in vivo at 100 mg/kg (Mus musculus [6]): 50%; inhibition in vivo at 100 mg/kg [7]: 54.3%
O=C(NO)c1ccc(C(=O)NCCNc2nonc2/C(=N/O)Nc2ccc(F)c(Br)c2)cc1 | 262 nM | 95% | > 100 µM | > 100 µM | 89.8 µM | 28.1 µM | 68 µM |  | 
O=C(CCCC(=O)NCCNc1nonc1/C(=N/O)Nc1ccc(F)c(Br)c1)NO | 121 nM |  | > 100 µM | > 100 µM | > 100 µM | 80.2 µM | > 100 µM | 133 nM | 
O=C(CCCCCCC(=O)NCCNc1nonc1/C(=N/O)Nc1ccc(F)c(Br)c1)NO | 47.7 nM |  | 56.6 µM | 97.5 µM | 36 µM | 4.7 µM | 14.9 µM | 140 nM | Activity (HCT-116 [8]): Dose-dependent effect; Activity (HCT-116 [9]): 25.5%; Activity (HCT-116 [10]): 31.1%; Activity (HCT-116 [11]): 44.5%; Activity (HCT-116 [12]): Active
O=C(CCCCC(=O)NCCNc1nonc1/C(=N/O)Nc1ccc(F)c(Br)c1)NO | 308 nM |  | > 100 µM | > 100 µM | > 100 µM | 85.4 µM | > 100 µM | 123 nM | 
O=C(CCCCn1cc(-c2ccc(C(=O)NCCNc3nonc3/C(=N/O)Nc3ccc(F)c(Br)c3)cc2)nn1)NO | 895 nM | 88% | > 100 µM | > 100 µM | > 100 µM | 37.5 µM | > 100 µM |  | 
NS(=O)(=O)NCCNc1nonc1C(=NO)Nc1ccc(F)c(Br)c1 [EPACADOSTAT] |  |  |  |  |  |  |  |  | Cmax [13]: 5560 ng/mL; Tmax [14]: 48 min; half-life [15]: 270 min; AUC(0-inf) [16]: 30700 ng·h/mL; AUC [17]: 70.2 µM·h; half-life [18]: 270 min

Second part, led by results:

IC50 (Histone deacetylase 1) | inhibition [1] | IC50 [2] | IC50 (CT26) | IC50 (A549) | IC50 (HCT-116 [3]) | IC50 (HT-29) | IC50 [4] | SMILES | also measured
1430 nM | 76% | 18.3 µM | 38.8 µM | 14.5 µM | 7.12 µM | 20.3 µM |  | Nc1ccccc1NC(=O)c1ccc(C(=O)NCCNc2nonc2/C(=N/O)Nc2ccc(F)c(Br)c2)s1 | 
46.2 nM |  | 21.6 µM | 12.8 µM | 25.6 µM | 5.89 µM | 14.2 µM | 168 nM | O=C(/C=C/c1ccc(C(=O)NCCNc2nonc2/C(=N/O)Nc2ccc(F)c(Br)c2)cc1)NO | Activity (HCT-116 [8]): Dose-dependent effect; Activity (HCT-116 [9]): 26.7%; Activity (HCT-116 [10]): 45.4%; Activity (HCT-116 [11]): 61.3%; Activity (HCT-116 [12]): Active
604 nM |  | 15.1 µM | 23.3 µM | 20.7 µM | 6.36 µM | 12.2 µM | 260 nM | Nc1ccccc1NC(=O)c1ccc(C(=O)NCCNc2nonc2/C(=N/O)Nc2ccc(F)c(Br)c2)cn1 | 
70.5 nM |  | 53.3 µM | 38.9 µM | 41.7 µM | 12.4 µM | 23.3 µM | 27 nM | O=C(/C=C/c1cccc(C(=O)NCCNc2nonc2/C(=N/O)Nc2ccc(F)c(Br)c2)c1)NO | 
23.5 nM |  | 36 µM | 90.2 µM | 45.5 µM | 29.4 µM | 23.9 µM | 210 nM | O=C(CCCCCCn1cc(-c2ccc(C(=O)NCCNc3nonc3/C(=N/O)Nc3ccc(F)c(Br)c3)cc2)nn1)NO | 
633 nM | 79% | 31.4 µM | 25.5 µM | 27.8 µM | 16.2 µM | 46.4 µM |  | Nc1ccccc1NC(=O)c1cccc(C(=O)NCCNc2nonc2/C(=N/O)Nc2ccc(F)c(Br)c2)c1 | 
